# According to the supplement of paper PMC10933113:
# Where a name gives a salt, the structure may show the parent alone. ± gives the uncertainty stated by the source.
# Experiments:
# THP-1 = experiment: efficacy of IL-8 induction relative to DMSO (% activity); higher = stronger induction; conditions: exposure time: 18 h
# [1] = test system: lysine peptide Ac-RFAAKAA-COOH; experiment: efficacy of lysine peptide change (negative = depletion) (% activity); higher = less depletion; conditions: incubation time: 24 h
# [2] = test system: cysteine peptide Ac-RFAACAA-COOH; experiment: efficacy of cysteine peptide change (negative = depletion) (% activity); higher = less depletion; conditions: incubation time: 24 h
# [3] = test system: KeratinoSens (HaCaT ARE-luciferase) cells; experiment: efficacy of ARE luciferase induction relative to DMSO (% activity over DMSO); higher = stronger induction; conditions: exposure time: 24 h
# [4] = test system: KeratinoSens (HaCaT ARE-luciferase) cells; experiment: cytotoxicity AC50 (CellTiter-Fluor viability); higher = less cytotoxic; conditions: exposure time: 24 h
Structure (SMILES),efficacy of lysine peptide change [1],efficacy of cysteine peptide change [2],efficacy of IL-8 induction (THP-1),efficacy of ARE luciferase induction [3],cytotoxicity AC50 [4] [µM]
CC[C@H]1CC[C@H](NCc2cc3c(cc2OC)[C@H]2C[C@H]2C(=O)N3C)[C@H](c2ccccc2)N1,–,–,18.9 ± 3.4,82.8 ± 33,26.4 ± 4.7
"c1ccc(-c2cccc(-c3ccccc3)c2)cc1 [1,1':3',1''-Terphenyl]",7.59 ± 13,-4.8 ± 8.3,9.01 ± 8.6,21.9 ± 16,–
"O=[N+]([O-])c1cc([N+](=O)[O-])c2ccccc2c1 [1,3-Dinitronaphthalene]",-15.1 ± 14,-32.4 ± 17,0,29.3 ± 10,–
"CC(C)(C)C(=O)CCl [1-Chloro-3,3-dimethyl-butan-2-one]",-4.45 ± 16,-43.1 ± 7.6,5.09 ± 4.6,26.8 ± 9.2,–
CCCCCCCCCCCCO [1-Dodecanol],-9.21 ± 17,0,0,9.49 ± 13,–
"Nc1ccc(Cl)cc1Cl [2,4-Dichloroaniline]",6.42 ± 18,0,8.9 ± 7.7,3.01 ± 5.2,–
CCCCOCCOCCOCCO [2-[2-(2-Butoxyethoxy)ethoxy]ethanol],207 ± 33,37.2 ± 7.3,3.34 ± 5.8,75.4 ± 120,–
COc1ccc(O)c(C(C)(C)C)c1 [2-tert-Butyl-4-methoxyphenol],5.8 ± 5,-37.3 ± 14,1.96 ± 3.4,4.91 ± 25,–
CCCCCCOc1ccc(O)cc1 [4-(Hexyloxy)phenol],–,–,0.98 ± 10,20 ± 18,–
Nc1ccc(-c2ccccc2)cc1 [4-Biphenylamine hydrochloride],-3.96 ± 11,-6.9 ± 6,0,12.3 ± 11,–
"Nc1ccc([N+](=O)[O-])cc1N [4-Nitro-1,2-phenylenediamine]",1.34 ± 22,-16.4 ± 5.1,3.64 ± 4.4,46.2 ± 27,41.6 ± 5.3
"COc1ccc2[nH]cc(CCN(C(C)C)C(C)C)c2c1 [5-Methoxy-N,N-diisopropyltryptamine hydrochloride]",138 ± 57,-5.5 ± 9.5,1.45 ± 2.5,19.1 ± 7.6,–
O=C(O)c1ccc(=O)[nH]c1 [6-Hydroxynicotinic acid],-6.78 ± 17,12.2 ± 12,0,27.8 ± 30,–
CCc1cccc(CC)c1N(COC)C(=O)CCl [Alachlor],64.4 ± 24,0,0,35.9 ± 29,48.5 ± 6.7
c1cc(OCC2CO2)ccc1Cc1ccc(OCC2CO2)cc1 (stereo not given) [Bis[4-(glycidyloxy)phenyl]methane],62.7 ± 21,-4.82 ± 8.3,-2.51 ± 4.3,-12 ± 59,57 ± 12
CCC(C)(c1ccc(O)cc1)c1ccc(O)cc1 [Bisphenol B],31.9 ± 11,2.81 ± 4.9,9.18 ± 8.1,38.7 ± 21,–
O=C(O)CCCCCCCCC(=O)O [Decanedioic acid],3.76 ± 20,54.5,0.59 ± 6,5.23 ± 4.5,–
c1cc(OCC2CO2)cc(OCC2CO2)c1 (stereo not given) [Diglycidyl resorcinol ether (DGRE)],46.9 ± 8.6,-8.5 ± 7.8,29.2 ± 11,74.5 ± 5.8,63.9 ± 12
C=CCOC(=O)/C=C\C(=O)OCC=C [Diprop-2-en-1-yl (2Z)-but-2-enedioate],-4.75 ± 8.2,-44.3 ± 3.7,3.9 ± 6.8,23.7 ± 6.3,–
COP(=S)(OC)Oc1ccc(SC)c(C)c1 [Fenthion],2.04 ± 28,0.74 ± 16,-2.61 ± 4.5,17.4 ± 5.5,–
CCC(C)(CC)c1cc(NC(=O)c2c(OC)cccc2OC)on1 [Isoxaben],47.2 ± 16,21.1 ± 6.2,2.21 ± 15,20.2 ± 5.5,–
CCCCCCCCCCCCN(CCO)CCO [Lauryldiethanolamine],109 ± 17,-45.7 ± 16,30.1 ± 14,-12.7 ± 56,–
CNC(=S)NN [N-Methylhydrazinecarbothioamide],-0.75 ± 9.8,-58.5 ± 10,91.8 ± 17,-12.3 ± 42,22.5 ± 2.6
CC1=C(C(=O)Nc2ccccc2)S(=O)(=O)CCO1 [Oxycarboxin],–,–,0,52.3 ± 47,32.9 ± 2.2
CCOP(=S)(OCC)Oc1cnc2ccccc2n1 [Quinalphos],10.6 ± 9.3,97.5 ± 350,7.62 ± 6.8,37.5 ± 24,–
CCNc1nc(NC(C)(C)C)nc(SC)n1 [Terbutryn],139 ± 22,21.4 ± 20,4.42 ± 7.7,8.44 ± 7.8,–
CCOC(=O)NC(=S)Nc1ccccc1NC(=S)NC(=O)OCC [Thiophanate],34.5 ± 10,-5.09 ± 4.7,3.6 ± 6.2,98.8 ± 100,–
"Cc1ccc(N=C=O)cc1N=C=O [Toluene-2,4-diisocyanate]",-3.03 ± 21,-19.2 ± 5,33 ± 3.5,82.9 ± 38,–
NCCc1ccc(O)cc1 [Tyramine],-1.41 ± 14,10.7 ± 18,0,17 ± 9,–
CCCCCCCCN [n-Octylamine],-6.29 ± 6.4,0,0,47.1 ± 74,–

# Second part, led by results:
efficacy of lysine peptide change [1],efficacy of cysteine peptide change [2],Structure (SMILES),efficacy of IL-8 induction (THP-1),efficacy of ARE luciferase induction [3],cytotoxicity AC50 [4] [µM]
3.3 ± 5.7,-16.5 ± 5.3,CC(=O)C1(C)CC2=C(CCCC2(C)C)CC1C (stereo not given),5.26 ± 9.1,13.2 ± 8.8,–
0.13 ± 15,-6.72 ± 6,CC(C)CC(NC(=O)OCC1c2ccccc2-c2ccccc21)C(=O)O (stereo in doubt) [N-(9-Fluorenylmethoxycarbonyl)-L-leucine],6.39 ± 11,65 ± 53,–
-9.19 ± 10,3.83 ± 6.6,"c1ccc(SCCSc2ccccc2)cc1 [1,2-Bis(phenylthio)ethane]",0,40.6 ± 11,–
29.4 ± 1.8,-4.91 ± 8.5,CCC(=O)C=Cc1ccc(OC)cc1 [1-(4-Methoxyphenyl)-1-pentene-3-one],0,-11.5 ± 51,–
-0.86 ± 12,-15.1 ± 3.5,"c1ccc(-c2ccccn2)nc1 [2,2'-Dipyridyl]",0,45.2 ± 39,–
-3.6 ± 17,-5.15 ± 8.9,"O=[N+]([O-])c1cc(Cl)c(Cl)c(Cl)c1Cl [2,3,4,5-Tetrachloronitrobenzene]",49.5 ± 10,42.4 ± 36,44.9 ± 5.2
1.65 ± 26,7.33 ± 6.5,"CC(C)c1ccc2cc(C(C)C)ccc2c1 [2,6-Diisopropylnaphthalene]",2.46 ± 4.3,28.7 ± 11,–
3.27 ± 16,73.8,CCCCCCCCCCCCOCCO [2-(Dodecyloxy)ethanol],-3.05 ± 5.3,8.82 ± 15,–
3.75 ± 3.3,0.73 ± 13,Oc1ccc(-c2ccccc2)cc1Cl [2-Chloro-4-phenylphenol],3.65 ± 6.3,22.4 ± 9.2,–
-5.58 ± 9.7,0,CCCCCCC(C)O (stereo not given) [2-Octanol],0,0,–
-22.7 ± 13,0,"CCCCCCCCCCC=CC1CC(=O)OC1=O (stereo not given) [3-(Dodecenyl)dihydro-2,5-furandione]",-1.83 ± 3.2,3.3 ± 5.7,–
17.7 ± 16,94.9,CC(C)(C)c1ccc(C(=O)CCCCl)cc1 [4'-Tert-butyl-4-chlorobutyrophenone],0,38.6 ± 9.4,–
7.32 ± 13,4.82 ± 8.3,CC(C)c1ccc2oc3nc(N)c(C(=O)O)cc3c(=O)c2c1 [Amlexanox],8.52 ± 7.4,28.6 ± 29,–
-10.2 ± 9.7,-8.72 ± 7.7,CCc1oc2ccccc2c1C(=O)c1cc(I)c(O)c(I)c1 [Benziodarone],0,17.7 ± 22,–
66 ± 24,8.87 ± 8.5,CCCCCCCCCCCCCCCC[N+](C)(C)Cc1ccccc1 [Benzylhexadecyldimethylammonium chloride],45 ± 9.3,-36.7 ± 2.6,31.8 ± 3.6
26.8 ± 7.9,3.97 ± 6.9,CC(=O)Oc1ccc(C(c2ccc(OC(C)=O)cc2)c2ccccn2)cc1 [Bisacodyl],0,30.5 ± 18,–
-35 ± 19,8.93 ± 9.3,CC(C)C[C@H](NC(=O)[C@H](Cc1ccccc1)NC(=O)c1cnccn1)B(O)O [Bortezomib],504 ± 17,-42.8 ± 3.7,0.33 ± 0.02
120 ± 29,32.5 ± 12,COc1cc(Nc2c(C#N)cnc3cc(OCCCN4CCN(C)CC4)c(OC)cc23)c(Cl)cc1Cl [Bosutinib],7.85 ± 7.5,-18.8 ± 8.1,12.6
-17.8 ± 10,-2.83 ± 4.9,CCCCCCCC(=O)Oc1c(Br)cc(C#N)cc1Br [Bromoxynil octanoate],0,2.61 ± 12,–
82.1 ± 16,4.33 ± 7.5,C=C(C)C(=O)Nc1ccc(Cl)c(Cl)c1 [Chloranocryl],1.33 ± 7.2,23.2 ± 7,–
-2.18 ± 19,8.17 ± 8.2,O=C(O)c1cn(C2CC2)c2cc(N3CCNCC3)c(F)cc2c1=O [Ciprofloxacin],0,14.6 ± 25,–

efficacy of lysine peptide change [1],efficacy of cysteine peptide change [2],Structure (SMILES),efficacy of IL-8 induction (THP-1),efficacy of ARE luciferase induction [3],cytotoxicity AC50 [4] [µM]
20.7 ± 22,42.2 ± 21,C#CCN(C)CCCOc1ccc(Cl)cc1Cl [Clorgyline hydrochloride],0,43.6 ± 25,–
2.82 ± 10,47 ± 2.6,CCOC(=O)CCC(=O)OCC [Diethyl butanedioate],3.24 ± 5.6,24.9 ± 23,–
4.84 ± 8.4,0,COP(=O)(O)OP(=O)(O)OC [Dimethyl dihydrogen diphosphate],0,22.1 ± 30,–
21.8 ± 24,59.7 ± 11,COC(=O)CCCCCCCC(=O)OC [Dimethyl nonanedioate],0,10.6 ± 13,–
1.96 ± 25,-8.26 ± 7.2,Clc1ccc(C(Cn2ccnc2)OCc2ccc(Sc3ccccc3)cc2)c(Cl)c1 (stereo not given) [Fenticonazole nitrate],3.64 ± 6.3,51.9 ± 25,–
50.2 ± 3.4,-1.8 ± 3.1,O=c1cc(-c2ccccc2)oc2ccccc12 [Flavone],3.56 ± 6.2,27 ± 10,–
90.6 ± 13,17.7 ± 6,Cc1c(C)n(Cc2ccccc2)c2ccc(C(=O)OCCN(C)C)cc12 [Indocate],17 ± 9.1,22.8 ± 4.9,28.7 ± 6.6
65.7 ± 12,1.83 ± 9.7,Clc1ccc(C(Cn2ccnc2)OCc2c(Cl)cccc2Cl)c(Cl)c1 (stereo not given) [Isoconazole],8.24 ± 7.5,15 ± 17,13.1 ± 0.89
9.47 ± 3,2.33 ± 4,COc1ccc(C(=O)c2ccc(C)cc2)c(O)c1 [Mexenone],10.8 ± 9.8,28 ± 31,–
0,-37 ± 6.3,CO[C@@]12[C@H](COC(N)=O)C3=C(C(=O)C(C)=C(N)C3=O)N1C[C@@H]1N[C@@H]12 [Mitomycin C],12.9 ± 11,17.2 ± 24,–
54.8 ± 7.6,-2.83 ± 4.9,CC(C)NC(=O)c1ccc(C=O)cc1 [N-isopropyl-4-formylbenzamide],29.6 ± 51,32.9 ± 39,–
64.1 ± 7.7,-4.4 ± 7.6,CCCCCOc1ccccc1/C(=C\SC)n1ccnc1 [Neticonazole],23.6 ± 1.8,21.4 ± 9.5,–
93.9 ± 56,40.2 ± 6.4,O=C(O)c1cccnc1Nc1cccc(C(F)(F)F)c1 [Niflumic acid],0,59.7 ± 37,–
-8.37 ± 1.2,-39.2 ± 4.3,NC(=O)N/N=C/c1ccc([N+](=O)[O-])o1 [Nitrofurazone],0,37 ± 47,–
3.95 ± 6.8,-5.45 ± 4.8,CCCCCCCC/C=C\CCCCCCCC(=O)N(C)CC(=O)O [Oleyl sarcosine],0,-5.73 ± 8.1,–
-8.69 ± 25,13.2 ± 15,COC(=O)Nc1nc2cc([S+]([O-])c3ccccc3)ccc2[nH]1 (stereo not given) [Oxfendazole],2.33 ± 4,0,–
34.2 ± 19,0.29 ± 11,CC(=O)Oc1ccc(C2(c3ccc(OC(C)=O)cc3)C(=O)Nc3ccccc32)cc1 [Oxyphenisatin acetate],0,49 ± 42,–
56.7 ± 8.3,-2.83 ± 4.9,CC(C(=O)O)c1ccc(/C=C2\CCCCC2=O)cc1 (stereo not given) [Pelubiprofen],0,-2.46 ± 29,–
10.7 ± 13,9.93 ± 10,O=C(Oc1ccccc1)c1ccccc1O [Phenyl salicylate],0,8.07 ± 11,–
-7.88 ± 7,-30.8 ± 9.8,Cc1cccc(N(C)C(=S)Oc2ccc3c(c2)C2CCC3C2)c1 (stereo not given) [Tolciclate],22.4 ± 2.8,46.5 ± 33,–
58.9 ± 23,-19.7 ± 9.4,CC(C)(C)OC(=O)c1ccc(O)cc1 [tert-Butyl 4-hydroxybenzoate],0,28.1 ± 9.8,–
